# Measured values: patent publication US10583206B2, “Radioactive probe for detecting hydrogen sulfide” (KYUNGPOOK NATIONAL UNIVERSITY INDUSTRY-ACADEMIC COOPERATION …, priority 2015, dated 2020)
# Experiments:
# [1] = Hydrogen sulfide selectivity test: decomplexation by NaOAc; format: physicochemical; settings: 100 μM or (1 mM), 37° C. for 15 minutes
# Protocol: (§1) In addition to hydrogen sulfide, many different anions, radicals, etc. exist in the body. Therefore, to examine selective reactivity of the ^64Cu-labeled complex compound according to the present disclosure for sulfide ions, the following experiment was performed.
# (§2) About 45 μCi-55 μCi of the ^64Cu-labeled complex compound (250 μL of triple distilled water) was mixed with 100 μM of various anion solutions (250 μL of triple distilled water) including biothiol, and stirred at 37° C. for 15 minutes.
# (§3) Formation of copper sulfide (^64CuS) was quantified by using a radio-TLC scanner.
# (§4) Various biothiol or salt solutions were prepared by dissolving the compounds in triple distilled water.
# (§5) In Table, concentrations of all biothiols and other competitive materials are 100 μM. Further, specific concentrations of biothiols, anions, and oxidants used in Table are as follows: [L-Cys (1 mM); L-Hcys (10 mM); GSH (10 mM); DL-dithiothretitol (DTT, 100 μM); L-ascorbic acid (L-AsA, 10 mM); 2-mercaptoethanol (2-ME, 10 mM); NaCl (10 mm); KI (1 mM); Na2S2O3 (1 mM); Na2S2O5 (1 mM); NaOAc (1 mM); H2O2 ([…]); NaClO4 (100 μM); NaHCO3 (100 μM); NaNO2 ([…]); NaN3 (100 μM); ATB 337 (100 μM); diallyl trisulphide (100 μM)].
# [2] = Hydrogen sulfide selectivity test: decomplexation by NaCl; format: physicochemical; settings: 100 μM or NaCl (10 mm), 37° C. for 15 minutes
# Protocol: as §1, §2, §3, §4, §5
# [3] = Hydrogen sulfide selectivity test: decomplexation by Cys; format: physicochemical; settings: 100 μM or L-Cys (1 mM), 37° C. for 15 minutes
# Protocol: as §1, §2, §3, §4, §5
# [4] = Hydrogen sulfide selectivity test: decomplexation by DTT; format: physicochemical; settings: DL-dithiothretitol (DTT, 100 μM); 37° C. for 15 minutes
# Protocol: as §1, §2, §3, §4, §5
# [5] = Hydrogen sulfide selectivity test: decomplexation by Na2S2O3; format: physicochemical; settings: 100 μM or (1 mM), 37° C. for 15 minutes
# Protocol: as §1, §2, §3, §4, §5
# [6] = Test of hydrogen sulfide selectivity (overall statements); format: physicochemical
# Protocol: as §1, §2, §3, §4, §5
# [7] = Hydrogen sulfide selectivity test: decomplexation by NaHCO3; format: physicochemical; settings: NaHCO3 (100 μM); 37° C. for 15 minutes
# Protocol: as §1, §2, §3, §4, §5
# [8] = Test of hydrogen sulfide detection over time (^64CuS formation, radio-TLC); format: physicochemical; parameters: unit not given here; settings: 100 μM NaHS, 37° C.
# Protocol: To examine reactivity of the ^64Cu-labeled complex compound according to the present disclosure over time, the following experiment was performed.
# A detailed experimental method is as follows.
# About 45 μCi-50 μCi of ^64Cu-labeled complex compound (250 μL of triple distilled water) was mixed with 100 μM of NaHS solution ([…] of triple distilled water), and stirred at 37° C. for 15 minutes. Formation of copper sulfide (^64CuS) was quantified by using a radio-TLC scanner.
# [9] = Hydrogen sulfide selectivity test: decomplexation by NaN3; format: physicochemical; settings: NaN3 (100 μM); 37° C. for 15 minutes
# Protocol: as §1, §2, §3, §4, §5
# [10] = Test of hydrogen sulfide detection sensitivity (% decomplexation with NaHS, radio-TLC); format: physicochemical; settings: 37° C. for 15 minutes
# Protocol: To measure hydrogen sulfide detection sensitivity of the ^64Cu-labeled complex compound according to the present disclosure, the following experiment was performed.
# About 45 μCi-55 μCi of ^64Cu-labeled complex compound (250 μL of triple distilled water) was mixed with various concentrations of NaHS solution (250 µL of triple distilled water), and stirred at 37° C. for 15 minutes (a total volume used in the reaction was equally 500 μL). After completion of the reaction, the resulting products were strongly stirred to mix appropriately.
# Formation of copper sulfide (^64CuS) was confirmed by quantification of % decomplexation by using a radio-TLC scanner, and results are shown in the following Tables 2 and 3.
# [11] = Hydrogen sulfide selectivity test: decomplexation by Kl; format: physicochemical; settings: 100 μM or KI (1 mM), 37° C. for 15 minutes
# Protocol: as §1, §2, §3, §4, §5
# [12] = Hydrogen sulfide selectivity test: decomplexation by Hcys; format: physicochemical; settings: 100 μM or L-Hcys (10 mM), 37° C. for 15 minutes
# Protocol: as §1, §2, §3, §4, §5
# [13] = Hydrogen sulfide selectivity test: decomplexation by H2O2; format: physicochemical; settings: H2O2 (100 µM); 37° C. for 15 minutes
# Protocol: as §1, §2, §3, §4, §5
# [14] = Hydrogen sulfide selectivity test: decomplexation by Na2S2O5; format: physicochemical; settings: 100 μM or (1 mM), 37° C. for 15 minutes
# Protocol: as §1, §2, §3, §4, §5
# [15] = Hydrogen sulfide selectivity test: decomplexation by NaClO4; format: physicochemical; settings: NaClO4 (100 μM); 37° C. for 15 minutes
# Protocol: as §1, §2, §3, §4, §5
# [16] = Hydrogen sulfide selectivity test: decomplexation by NaNO2; format: physicochemical; settings: NaNO2 (100 µM); 37° C. for 15 minutes
# Protocol: as §1, §2, §3, §4, §5
# [17] = Hydrogen sulfide selectivity test: decomplexation by ME; format: physicochemical; settings: 2-mercaptoethanol; 100 μM or (2-ME, 10 mM); 37° C. for 15 minutes
# Protocol: as §1, §2, §3, §4, §5
# [18] = Hydrogen sulfide selectivity test: decomplexation by GSH; format: physicochemical; settings: 100 μM or GSH (10 mM), 37° C. for 15 minutes
# Protocol: as §1, §2, §3, §4, §5
# [19] = Hydrogen sulfide selectivity test: decomplexation by ATB 337; format: physicochemical; settings: ATB 337 (100 μM); 37° C. for 15 minutes
# Protocol: as §1, §2, §3, §4, §5
# [20] = Hydrogen sulfide selectivity test: decomplexation by L-AsA; format: physicochemical; settings: L-ascorbic acid; 100 μM or (L-AsA, 10 mM); 37° C. for 15 minutes
# Protocol: as §1, §2, §3, §4, §5
# [21] = Hydrogen sulfide selectivity test: decomplexation by DAT (diallyl trisulphide); format: physicochemical; settings: DAT = diallyl trisulphide (100 μM); 37° C. for 15 minutes
# Protocol: as §1, §2, §3, §4, §5
# Paw inflammation model = format: in vivo, Balb/c or ICR mice
# Protocol: (1) Paw Pain Inflammation Model
# A small amount of CFA (complete Freund's adjuvant) or formalin was injected into only one paw (right) of the hind paws of Balb/c or ICR mice to establish inflammation models. 1 day after injection of the inflammation inducer, the mice were used in imaging or other in vivo experiments.
# It is a known fact that inflamed sites show high concentrations of hydrogen sulfide.
# Nuclear medicine imaging was measured by using an Inveon PET/CT system of Siemens Healthcare, and optical imaging was measured by using IVIS spectrum CT equipment. Cherenkov radiation emitted from ^64Cu was measured by using a highly sensitive CCD (charge-coupled device) camera.
# Imaging was measured for 1 minute to 5 minutes, and a radiation dose was about 50 μCi to 2000 μCi, and photographs were variously taken as needed, such as immediately after first injection, at 1 hour, 4 hours, and 24 hours later.
# [22] = test system: Myocardial infarction model; experiment: Imaging study in myocardial infarction model (PET); format: in vivo, Sprague-Dawley rats; settings: PET imaging after injection
# From the text: (2) Myocardial Infarction Model
# A myocardial infarction model was established by using Sprague-Dawley rats (12-week-old or older, about 250 g). 2 days later after induction of myocardial infarction by occlusion of the coronary arteries in the heart, the rats were used in imaging tests. It is a known fact that myocardial infarction sites show high concentrations of hydrogen sulfide.
# It is known that myocardial infarction sites show high concentrations of hydrogen sulfide. Thus, after induction of myocardial infarction by coronary artery occlusion in rats, 50 μCi-900 μCi of the ^64Cu-labeled complex compound was injected via the tails of the rats, and uptake in the myocardial infarction site was examined over time by PET imaging.
# 36 hours after establishment of the myocardial infarction model, 730 μCi of the radioisotope-labeled complex compound of the present disclosure was injected and nuclear medicine imaging was performed. 2 days later, […] of FDG was injected into the same rat, and then FDG-PET images were obtained. Results are shown in FIGS. 15 to 17 (in the nuclear medicine imaging, the upper image represents a transverse image, and the lower image represents a coronal image).
SMILES,Decomplexation [%] [1],Decomplexation [%] [2],Decomplexation [%] [3],Decomplexation [%] [4],Decomplexation [%] [5],Decomplexation [%] [7],Formation of copper sulfide (^64CuS) over time ([8]; 10 sec),Formation of copper sulfide (^64CuS) over time ([8]; 30 sec),Formation of copper sulfide (^64CuS) over time ([8]; 60 sec),Formation of copper sulfide (^64CuS) over time ([8]; 5 min),Formation of copper sulfide (^64CuS) over time ([8]; 10 min),Formation of copper sulfide (^64CuS) over time ([8]; 15 min),Decomplexation [%] [9],% decomplexation ([10]; NaHS 0 μM),% decomplexation ([10]; NaHS 1 μM),% decomplexation ([10]; NaHS 10 μM),% decomplexation ([10]; NaHS 15 μM),% decomplexation ([10]; NaHS 20 μM),% decomplexation ([10]; NaHS 50 μM),% decomplexation ([10]; NaHS 100 μM),also measured
C1COCCNCCOCCN1.[64Cu+2] [Example 3],15%,0.3%,0.4%,45 ± 2%,19 ± 5%,0.3%,62,70,75,100,100,100,0.6%,0%,0%,3%,6%,79%,100%,100%,"selective reactivity with hydrogen sulfide versus biothiol compounds or anions, in words [6]: did not selectively react with hydrogen sulfide; Decomplexation [%] [11]: 0.1%; Decomplexation [%] [12]: 27 ± 3%; Decomplexation [%] [13]: 0.4%; Decomplexation [%] [14]: 5%; Decomplexation [%] [15]: 0.4%; Decomplexation [%] [16]: 0.5%; Decomplexation [%] [17]: 16%; Decomplexation [%] [18]: 48%; Decomplexation [%] [19]: 3 ± 1%; Decomplexation [%] [20]: 15%; Decomplexation [%] [21]: 100%; selective uptake in inflamed sites (Paw inflammation model; optical imaging and nuclear medicine imaging): selective uptake"
"C1C[N]2CC[N]3CC[N]4CC[N](C1)[64Cu]234 [Example 16, ^64Cu-labeled cyclam]",0.8 ± 0.0%,0.7 ± 0.0%,0.7 ± 0.2%,0.8 ± 0.0%,0.8 ± 0.1%,0.5 ± 0.1%,0,0,0,3,5,10,0.7 ± 0.1%,0%,0%,0%,0%,0%,1.3%,10.5%,"uptake / visualisation of the myocardial infarction site [22]: no specific uptake was observed in the heart; Decomplexation [%] [11]: 0.7 ± 0.0%; Decomplexation [%] [12]: 0.7 ± 0.0%; Decomplexation [%] [13]: 0.7 ± 0.2%; Decomplexation [%] [14]: 0.5 ± 0.0%; Decomplexation [%] [15]: 0.6 ± 0.1%; Decomplexation [%] [16]: 0.5 ± 0.1%; Decomplexation [%] [17]: 0.5 ± 0.6%; Decomplexation [%] [18]: 0.8 ± 0.2%; Decomplexation [%] [19]: 0.6 ± 0.0%; Decomplexation [%] [20]: 0.7 ± 0.2%; difference between inflamed and normal paws (Paw inflammation model; mouse, in vivo): no obvious difference in the inflamed and normal paws; uptake compared to injection of the same quantity of ^64Cu-labeled cyclen of Example 1 (Paw inflammation model; mouse, in vivo): low uptake"
